The text below walks through data of US20160280651A1, “COMPOUNDS THAT INDUCE ABA RESPONSES” (THE REGENTS OF THE UNIVERSITY OF CALIFORNIA, priority 2013, published 2016).

One test concerns Arabidopsis plants. In words: Arabidopsis drought stress assay. Particulars: 25 μM, aerosol every 3 days. It counts as in vivo. How it is done:
FIG. 8A-FIG. 8B. Quinabactin confers drought stress tolerance to wild-type plants. (A) Effect of quinabactin on Arabidopsis drought tolerance. Two-week-old plants were subjected to drought stress by withholding water and were photographed after 12 days. During the drought period, plants were treated every 3 days with 25 μM compound. Plants were re-hydrated after 2 weeks drought treatment; the number of surviving plants (out of total number tested) for each treatment is shown next to each image. (B) Effects of quinabactin on soybean. Two-week-old plants were subjected to drought stress by withholding water and photographed after 8 days drought treatment. […]
Physiological assays were performed on Arabidopsis plants grown at 22±2° C. and relative humidity (RH) 45±10% under a 16/8-h light/dark cycle. […] 12 4-week old plants were sprayed per compound or control analyzed. After overnight pre-treatment with compounds, the aerial portions were detached from roots, and their fresh weight measured at 20 min intervals over a 2 hour time period. […] The leaf impressions were analyzed by light microscopy and stomatal apertures were determined from the pore widths using ImageJ 1.43v software (National Institutes of Health, USA). […] Pots were covered in Parafilm to so that the water loss measured was transpiration mediated. […]

For another test, the system named is Arabidopsis seedlings. In words: Root growth and plant growth inhibition of Arabidopsis seedlings. It counts as in vivo. How it is done: FIG. 6A-FIG. 6C. LC66C6 inhibits plant growth. (A) Photographs showing the effect of ABA, Pyrabactin and LC66C6 on the wild type, abi1-1 and PYR/PYL quadruple mutant Arabidopsis genotypes. (B) Root growth inhibition and (C) plant growth inhibition by ABA, LC66C6 and pyrabactin. Two day old seedlings were transferred on ½×MS plate containing chemicals and phenotypes scored or photographed after a 5-day incubation on test compounds.

The subject of test [1] is MAPKKK18 promoter::GUS reporter. Kind of test: MAPKKK18 promoter::GUS ABA-responsive reporter gene assay. It counts as in vivo, Arabidopsis. The following applies: guard cells, vascular tissues of leaves and roots, radicle tips of imbibed seeds. The method, then: Existing ABA-responsive promoter-GUS fusions are, in our experience, not ideal due to either high background levels or relatively low induction levels in response to ABA. […] We therefore characterized the effects of agonists on MAPKKK18 promoter::GUS reporter transgenic plants. GUS staining was performed in a reaction buffer of the following composition: 50 mM sodium phosphate buffer pH 7.0, 0.05% Tween-20, 2.5 mM potassium ferrocyanide, 2.5 mM potassium ferricyanide, 1 mM X-gluc. The reaction buffer was vacuum infiltrated into test samples for 10 min two times and then incubated at 37° C. for 5 h. The reaction was stopped by washing the samples with 70% ethanol, and chlorophyll pigments bleached by incubation at 65° C.

For another test, the system named is Arabidopsis seeds. In words: Arabidopsis germination inhibition, wild type and mutants, Example 2. Format: in vivo. How it is done:
FIG. 5A-FIG. 5D. Novel ABA agonists inhibit germination of Arabidopsis seeds more strongly than pyrabactin. (A) and (B) Comparison of seed germination inhibition by ABA agonists. (C) and (D) the effects of ABA and LC66C6 (also called quinabactin) on Arabidopsis ABA signaling- and biosynthesis-deficient mutants on germination (C) and seedling establishment (D). Seeds were sown on ½×MS agar plate containing chemicals, and were stored at 4° C. for 4 days, then transferred at 22±2° C. Photographs (A and C) and germination (B) or green cotyledon (D) scores were assessed after a 4-day incubation under continuous illumination.
As a third screening approach, the Life Chemicals library was also screened for Arabidopsis germination inhibitors in solidified agar medium containing 0.5×MS salts, 0.5% sucrose and 25 μM test compound. Hits from the germination assay were subsequently tested in yeast two hybrid assays. Hit compounds were restocked from their original vendors and used in secondary screens and compound characterization. […]
For Arabidopsis germination and hypocotyl growth inhibition analysis, seeds after-ripened about 4 weeks were surface-sterilized with a solution containing 5% NaClO and 0.05% Tween-20 for 10 minutes, and rinsed with water four times. […] Germination was determined after a 4-day incubation, whereas hypocotyl growth was photographed after 6-day incubation.

In the next test the test system is ZmRab17 and ZmLEA. Kind of test: Quantitative RT-PCR of ABA-responsive genes in maize. Format: in vivo. An excerpt: FIG. 13A-FIG. 13E. LC66C6 modulates ABA responses in diverse species. Germination inhibition (A) and transpirational water loss in detached leaves 2-hours after detachment (B) in response to compounds shown. The expression of ABA-responsive marker genes in Soybean (C), Barley (D) and Maize (E) after application of chemicals. D, P, L and A indicate DMSO, pyrabactin, LC66C6 and (+)-ABA, respectively.
Total RNA was isolated using Plant RNA purification reagent (Invitrogen, USA) according to the manufacturer's instructions. cDNA was synthesized from 1 μg of total RNA using the QantiTec reverse transcription kit (Qiagen, USA). Real-time PCR using Maxima® SYBR Green/Fluorescein qPCR Master Mix (Fermentas) was performed with the iQ5 real-time PCR detection system (Bio-Rad, Hercules, Calif.). The relative amounts of target mRNAs were determined using the relative standard curve method and were normalized by relative amount of internal control mRNA. Biological triplicate experiments were performed.

SMILES strings stand for the structures. Entries after “also recorded” stand apart in the source; their conditions may differ.

In the case of `CCCN1C(=O)CCc2cc(NS(=O)(=O)Cc3ccc(C)cc3)ccc21` [LC66C6], the Drought stress tolerance result in the test with Arabidopsis plants is “confers drought stress tolerance in Arabidopsis plants similar to that conferred by treatment with (+)-ABA”. For the same molecule, the “Inhibition of plant growth” value with Arabidopsis seedlings (wild-type and mutant plants) is “significantly greater than the inhibition by pyrabactin, and comparable to that of (+)-ABA”. Also, the “Inhibition of root elongation” value in the test on Arabidopsis seedlings (wild-type, abi1 and quadruple mutant, all concentrations tested) is recorded as “comparable to or slightly more effective than (+)-ABA”. In test [1], the “Tissue pattern of reporter gene expression” value is reported as “induces expression of reporter genes in the same tissues as (+)-ABA”. Also, in the test on Arabidopsis seeds, the “Inhibition of germination of wild-type seeds” value was “nearly as effective, on a per mole basis, at inhibiting germination as (+)-ABA; also recorded: one of the most effective agonists, after (+)-ABA, at inhibiting germination of wild-type seeds”. Further, in the test with ZmRab17 and ZmLEA, the “Expression of ABA-responsive genes ZmRab17 and ZmLEA” value was “weakly induces”.
